Experiments:
BT-474 = experiment: Anticancer activity against human BT474 cells assessed as inhibition of cell growth after 72 hrs by MTT or MTS assay; assay type: functional, cell-based; settings: BT-474, 72 h
Jurkat E6.1 = experiment: Anticancer activity against human Jurkat E6-1 cells assessed as inhibition of cell growth after 72 hrs by MTT or MTS assay; assay type: functional, cell-based; settings: Jurkat E6.1, 72 h
CCRF-CEM = experiment: Anticancer activity against human CCRF-CEM cells assessed as inhibition of cell growth after 72 hrs by MTT or MTS assay; assay type: functional, cell-based
MDA-MB-231 = experiment: Anticancer activity against human MDA-MB-231 cells assessed as inhibition of cell growth after 72 hrs by MTT or MTS assay; assay type: functional, cell-based; settings: MDA-MB-231, 72 h
A549 = experiment: Anticancer activity against human A549 cells assessed as inhibition of cell growth after 72 hrs by MTT or MTS assay; assay type: functional, cell-based; settings: A549, 72 h
[1] = Prodrug conversion assessed as Escherichia coli GST catalyzed NO release at 1 uM measured after 5 hrs in presence of GSH by DAF-FM DA reagent based fluorescence spectrophotometric analysis; assay type: ADME

| Compound | IC50 (BT-474) [µM] | IC50 (Jurkat E6.1) [µM] | IC50 (CCRF-CEM) [µM] | IC50 (MDA-MB-231) [µM] | IC50 (A549) [µM] | fold change (FC) [1] |
| --- | --- | --- | --- | --- | --- | --- |
| O=[N+]([O-])c1ccc(O/N=[N+](\[O-])N2CCN(CCN3CCN(/[N+]([O-])=N/Oc4ccc([N+](=O)[O-])cc4[N+](=O)[O-])CC3)CC2)c([N+](=O)[O-])c1 | 10.7 | 3.71 | 2.64 | 17.6 | 17.1 | 2 |
| CCOC(=O)N1CCN(/[N+]([O-])=N/Oc2ccc([N+](=O)[O-])cc2[N+](=O)[O-])CC1 | 3.66 | 0.92 | 0.89 | 7.93 | 2.11 | – |

— ChEMBL document CHEMBL4619712, “Double-component diazeniumdiolate derivatives as anti-cancer agents” (Bioorg Med Chem, 2020)
